# Results reported in patent publication US20240091267A1, “PRE-TREATMENT OF MSC WITH PPARB/DELTA AGONIST FOR TREATMENT OF ISCHEMIA-REPERFUSION INJURY” (Universite de Montpellier, priority 2020, published 2024).
# Columns and labels:
# MSC [1] = test: Specific DNA fragmentation (Cell Death ELISA) in MSC exposed to H2O2-induced oxidative stress; type: cell-based, mouse; conditions: then 250 μM H2O2 4 h, vs naive MSC/H2O2
# Procedure: FIG. 6: Increased resistance to oxidative stress and survival of PPARβ/δ-primed MSC. (A) 48 hours after the seeding step in complete medium, MSC were subjected to H2O2-induced oxidative stress during 4 hours in minimal medium with serum deprivation. Pharmacological preconditioning of MSC using PPARβ/δ agonist or antagonist was performed 24 hours before oxidative stress exposure. At the end of the protocol, cell death or relative gene expression was analyzed measuring specific DNA fragmentation by ELISA and transcript amounts by RT-qPCR. (B): Scatter plot and bars were presented for specific DNA fragmentation quantification measured in MSC treated with H2O2 at various concentrations (0, 100, 150, 250, 500 and 750 μM) for 4 h in minimal medium. Data (normalized by the control value obtained with untreated MSC) were plotted as scatter dot blots and mean±SD for each group of treatment and compared using Kruskal-Wallis (Dunn's post hoc test) and were noted **** for p<0.0001 (250 group, n=11 independent cultures vs 0 group, n=13), ** for p=0.0013 (100 group, n=10 vs 0 group, n=13), ** for p=0.0015 (350 group, n=9 vs 0 group, n=13), **for p=0.0015 (500 group, n=9 vs 0 group, n=13) and * for p=0.0332 (750 group, n=3 vs 0 group, n=13). (C): Scatter plots and bars were presented for specific DNA fragmentation quantification measured in MSC treated with 250 μM of H2O2 pretreated with GW0742 or GSK0660 at 0.1 and 1 μM 24 hours before H2O2 exposure. […]
# DNA fragmentation was quantified in vitro on cell lysates with an enzyme-linked immunosorbent assay kit (Cell Death ELISA; Roche Diagnostics) designed to measure of histone-complexed DNA fragments (mono- and oligonucleosomes) out of the cytoplasm of cells after the induction of apoptosis.
# To do this, MSC were submitted to an IR-simulated stress in vitro using various concentrations of H2O2 (100, 250, 350, 500 and 750 μM; see the protocol on FIG. 6A) for 4 hours. Apoptosis quantification was assessed by the mean of specific DNA fragmentation measurement for the different groups of treatment. […]
# MSC [2] = test: RT-qPCR relative gene expression in untreated or preconditioned MSC; type: cell-based, mouse; conditions: for hgf transcripts / pdgf transcripts / vegf-α transcripts: then H2O2 4 h, vs untreated MSC/H2O2; for bcl2 gene expression level: then H2O2, vs H2O2-treated MSC
# Procedure: FIG. 8: (A) 48 hours after the seeding step in complete medium, MSC were subjected to H2O2-induced oxidative stress during 4 hours in minimal medium with serum deprivation. Pharmacological preconditioning of MSC using PPARβ/δ agonist or antagonist was performed 24 hours before oxidative stress exposure. At the end of the protocol, relative gene expression was analyzed measuring transcript amounts by RT-qPCR. mRNA expression levels in untreated or preconditioned MSC exposed to an oxidative stress were assessed by RT-qPCR for (B) vegf: data (mean±SEM) were compared using ANOVA and the Tukey's post hoc for multiple comparisons (normality test passed). […] P values were ns versus H2O2, n=7 for control n=8, GW0742 0.1 μM n=7, GW0742 1 μM n=9, GSK0660 0.1 μM n=6 and GSK0660 1 μM n=9; and (D) for pdgf: data (mean±SEM) were compared using ANOVA and the Tukey's post hoc for multiple comparisons (normality test passed). […] For statistical analysis comparisons were made to the untreated MSC/H2O2 group.
# (§1) MSCs were pre-incubated for 24 hours with either PPARβ/δ antagonists GSK3787 (0.1 and 1 μM), PPARβ/δ inverse agonist GSK0660 (0.1 and 1 μM) or PPARβ/δ agonist GW0742 (0.1, 1 and 5 μM) before to be washed with PBS and used in co-cultures experiments or injected in the myocardium. When indicated, MSCs were labeled with the fluorescent cell-tracer CM-Dil (Molecular Probes). MSC were collected and suspended in 5 mL PBS containing CM-Dil (10^7 cells/10 μg) prior to be incubated at 37° C. for 5 minutes followed by 15 minutes at 4° C., in the dark. Labeled MSCs were washed 2 times in PBS, resuspended in PBS and maintained at 4° C. prior to be injected in the myocardium.
# Isolation of total RNA for each sample was performed using the RNeasy Mini Kit (Qiagen, Courtaboeuf). The quantity and quality of the RNA extracted were defined by using a NanoDrop ND-1000 spectrophotometer (NanoDrop ND, Thermo Fisher Scientific). Then, using the SensiFAST cDNA synthesis kit (Bioline), cDNA was synthesized by reverse transcribing 500 ng RNA into cDNA. Using the SensiFAST™ SYBR (Bioline) and a LightCycler® 480 Detection system Quantitative following manufacturer's recommendations, PCR were performed. Primers specific for angpl4, pdk4, bcl2, hgf, pdgf, nrf2 were designed using the Primer3 software. Data were normalized to the housekeeping gene ribosomal protein S9 (RPS9) and the values were expressed as relative mRNA level of specific gene expression as calculated using the 2^−ΔCt method.
# [3] = system: infarcted myocardial tissue; test: MSC grafted in infarcted myocardial tissue, fluorescence of Dil-labeled MSC in LV sections; parameters: species or system mouse (C57BL/6J); conditions: Dil-labeled MSC pretreated 1 μM vs naive MSC
# Procedure: as §1
# At the end of ex vivo experiments, left ventricles (LV) were fixated in formol and embedded in paraffin. Each left ventricle was cut from the apex through the base (4 μm sections each 150 μm). Paraffin-embedded sections were deparaffinised then rehydrated through an alcohol gradient. Sections were mounted in Mowiol (Biovalley). LV Sections were scanned by the Zeiss Axio Scan Z1 slide scanner (Zeiss, Oberkochen, Germany). Scanning was done with the ×20 objective. Images were analyzed using ImageJ.
# [4] = system: TXNIP (Thioredoxin interacting protein); conditions: neuronal stress; neonatal hypoxic-ischemic injury in rats; cited from earlier work
# [5] = MSC pretreated 24 h with 0.1 μM
# [6] = pretreatment of cultured MSC (data not shown)
Compound,Specific DNA fragmentation (MSC resistance to oxidative stress) (MSC [1]; MSC pretreated 24 h with 1 μM),hgf transcripts (MSC [2]; [5]),pdgf transcripts (MSC [2]; [5]),vegf-α transcripts (MSC [2]; [5]),hgf transcripts (MSC [2]; MSC pretreated 24 h with 1 μM),pdgf transcripts (MSC [2]; MSC pretreated 24 h with 1 μM),vegf-α transcripts (MSC [2]; MSC pretreated 24 h with 1 μM),bcl2 gene expression level (MSC [2]; MSC pretreated 24 h with 1 μM),Percentage of fluorescence (MSC grafted in infarcted myocardium) increased by [3],Specific DNA fragmentation (MSC resistance to oxidative stress) (MSC [1]; [5]),bcl2 gene expression level (MSC [2]; [5]),angpl4 target gene expression level (MSC [2]; [6]),pdk4 target gene expression level (MSC [2]; [6]),TXNIP inhibition [4]
COC(=O)c1sccc1S(=O)(=O)Nc1ccc(Nc2ccccc2)cc1OC [GSK0660],impaired MSC resistance against H2O2-induced oxidative without reaching significance,A similar tendency was observed,A similar tendency was observed,significantly decreased,A similar tendency was observed,A similar tendency was observed,significantly decreased,significantly reduced bcl2 gene expression level,–,–,–,–,–,–
Cc1cc(SCc2sc(-c3ccc(C(F)(F)F)c(F)c3)nc2C)ccc1OCC(=O)O [GW0742],enhanced significantly MSC resistance,did not modify,–,did not modify,did not modify,significantly increased the expression of pdgf,did not modify,–,3.5 times,did not modify the capacity of MSC to resist against oxidative stress,significant increase in bcl2 gene expression level,increased expression levels,increased expression levels,inhibits TXNIP
